Source: patent publication US10947205B2, “Oxazolidinone compounds and methods of use thereof as antibacterial agents” (priority 2015, dated 2021)
Values after ≈ are worked out from the molar mass of the structure shown. Read-outs that look alike come from different tables or passages of the source.

What was measured:
[1] = tested on: Staphylococcus aureus (methicillin resistant, MB5393, COL); experiment: microbe, parasite or virus in culture; type: cell-based; details: MRSA, 22 h, read-out: MRSA COL MITC95 μM
Procedure: Inhibition of Staphylococcus aureus (methicillin resistant, MB5393, COL) growth was assessed in cation adjusted Mueller Hinton II broth (CAMHB) in 384-well microtiter plates. Bacteria were dispensed into microtiter plates at approximately 5×10^5 actively growing cells in 49 μL volumes per well. Cells were exposed to 2-fold serial dilutions of compounds from 200 μM to 0.195 μM and growth compared to drug-free control. Compound dilutions were prepared in 100% dimethylsulfoxide and added to microtiter plates in 1 μL volumes per well. Full growth control wells contained dimethylsufoxide and bacteria. No growth control wells contained dimethysulfoxide and CAMHB but no bacteria. Growth inhibition was assessed after a 22-hour growth period by measuring optical density using a spectrophotometer. The lowest concentration of test compound required to inhibit 95% of the growth of the bacteria was defined as the MITC95. All studies were done in a BSL2 facility.

[2] = tested on: mitochondrial protein synthesis in HepG2 cells (COX-I / SDH-A); experiment: Mitochondrial protein synthesis assay; type: cell-based; details: Homo sapiens, 96 h; HepG2 cells, 4 days, ratio of COX-1 to SDH-A levels; read-out: MPS IC50_μM
Procedure: (§1) Inhibition of mitochondrial protein synthesis was assessed in HepG2 cells by comparing the levels of two subunits of oxidative phosphorylation enzyme complexes, subunit I of Complex IV (COX-I) and the 70 kDa subunit of Complex II (SDH-A). COX-I is mitochondrial DNA encoded and SDH-A is nuclear DNA encoded. HepG2 cells were seeded in 96-well collagen coated plates at 8,000 cells per well and exposed to 2-fold serial dilutions of compounds from 100 LM to 6.25 μM. Microtiter plates were incubated for approximately 5 replication cycles (4 days) prior to assessment of protein levels using a kit as described by the manufacturer (ab 110217 MitoBiogenesis In Cell ELISA Kit, Abcam, Cambridge, Mass.). Inhibition of mitochondrial protein synthesis was expressed as a ratio of COX-1 to SDH-A levels.
as §1, with “μM” for “LM”

[3] = tested on: Mycobacterium tuberculosis (Mtb); experiment: microbe, parasite or virus in culture; type: cell-based, Mycobacterium tuberculosis H37Rv (Mtb-GFP); details: 168 h
[4] = pH 6.8, read-out: Mtb Cho MITC95_μM
[5] = pH 6.8, read-out: Mtb Glu MITC95_μM

SMILES	MIC [1] [µM]	IC50 [2] [µM]	MIC [3, 4] [µM]	MIC [3, 5] [µM]
NCc1ccc(F)c(-c2ccc(N3C[C@H](Cn4ccnn4)OC3=O)cc2F)c1 [Example 55, (5R)-3-[5′-(aminomethyl)-2,2′-difluorobiphenyl-4-yl]-5-(1H-1,2,3-triazol-1-ylmethyl)-1,3-oxazolidin-2-one]	50 (≈ 19.3 µg/mL)	> 20	0.19 (≈ 0.0732 µg/mL)	0.19 (≈ 0.0732 µg/mL)
NCC(=O)NC[C@H]1CN(c2ccc(-c3ccc(C(N)=O)cc3)c(F)c2)C(=O)O1 [Example 57, (S)-4′-(5-((2-aminoacetamido)methyl)-2-oxooxazolidin-3-yl)-2′-fluoro-[1,1′-biphenyl]-4-carboxamide]	25 (≈ 9.66 µg/mL)	50	0.535 (≈ 0.207 µg/mL)	0.29 (≈ 0.112 µg/mL)
NC[C@H]1CN(c2ccc(-c3ccc4ncnn4c3)c(F)c2)C(=O)O1 [Example 5, (5S)-5-(aminomethyl)-3-(3-fluoro-4-[1,2,4]triazolo[1,5-a]pyridin-6-ylphenyl)-1,3-oxazolidin-2-one]	200 (≈ 65.5 µg/mL)	> 20	0.09 (≈ 0.0295 µg/mL)	0.04 (≈ 0.0131 µg/mL)
NC[C@H]1CN(c2ccc(-c3ccn[nH]3)c(F)c2)C(=O)O1 [Example 16, (5S)-5-(aminomethyl)-3-[3-fluoro-4-(1H-pyrazol-5-yl)phenyl]-1,3-oxazolidin-2-one]	200 (≈ 55.3 µg/mL)	> 20	0.39 (≈ 0.108 µg/mL)	0.19 (≈ 0.0525 µg/mL)
NC[C@H]1CN(c2ccc(-c3cncnc3)c(F)c2)C(=O)O1 [Example 25, (5S)-5-(aminomethyl)-3-(3-fluoro-4-pyrimidin-5-ylphenyl)-1,3-oxazolidin-2-one]	200 (≈ 57.7 µg/mL)	> 20	0.19 (≈ 0.0548 µg/mL)	0.04 (≈ 0.0115 µg/mL)
NC[C@H]1CN(c2ccc(-c3cnn(C(F)F)c3)c(F)c2)C(=O)O1 [Example 36, (5S)-5-(aminomethyl)-3-{4-[1-(difluoromethyl)-1H-pyrazol-4-yl]-3-fluorophenyl}-1,3-oxazolidin-2-one]	200 (≈ 65.3 µg/mL)		0.48 (≈ 0.157 µg/mL)	1.5 (≈ 0.489 µg/mL)
NC[C@H]1CN(c2ccc(-c3ccoc3)c(F)c2)C(=O)O1 [Example 12, (5S)-5-(aminomethyl)-3-(3-fluoro-4-furan-3-ylphenyl)-1,3-oxazolidin-2-one]	200 (≈ 55.3 µg/mL)		1.14 (≈ 0.315 µg/mL)	1.14 (≈ 0.315 µg/mL)
CSc1ccc(-c2ccc(N3CC(Cn4ccnc4)OC3=O)cc2F)cc1 (stereo in doubt) [Example 45, (5R)-3-[2-fluoro-4′-(methylsulfanyl)biphenyl-4-yl]-5-(1H-imidazol-1-ylmethyl)-1,3-oxazolidin-2-one]	200 (≈ 76.7 µg/mL)		0.39 (≈ 0.15 µg/mL)	1.14 (≈ 0.437 µg/mL)
CN(C)S(=O)(=O)c1ccc(-c2ccc(N3C[C@H](CN)OC3=O)cc2F)cc1 [Example 14, 4′-[(5S)-5-(aminomethyl)-2-oxo-1,3-oxazolidin-3-yl]-2′-fluoro-N,N-dimethylbiphenyl-4-sulfonamide]	200 (≈ 78.7 µg/mL)		1.14 (≈ 0.449 µg/mL)	0.78 (≈ 0.307 µg/mL)
NC[C@H]1CN(c2ccc(-c3ccsc3)c(F)c2)C(=O)O1 [Example 15, (5S)-5-(aminomethyl)-3-(3-fluoro-4-thiophen-3-ylphenyl)-1,3-oxazolidin-2-one]	200 (≈ 58.5 µg/mL)		0.58 (≈ 0.17 µg/mL)	1.14 (≈ 0.333 µg/mL)
NC[C@H]1CN(c2ccc(-c3ccc(O)cc3)c(F)c2)C(=O)O1 [Example 11, (5S)-5-(aminomethyl)-3-(2-fluoro-4′-hydroxybiphenyl-4-yl)-1,3-oxazolidin-2-one]	200 (≈ 60.5 µg/mL)		0.14 (≈ 0.0423 µg/mL)	25.1 (≈ 7.59 µg/mL)
CSc1ccc(-c2ccc(N3C[C@H](CNC(=O)NN(C)C)OC3=O)cc2F)cc1 [Example 60, (S)—N-((3-(2-fluoro-4′-(methylthio)-[1,1′-biphenyl]-4-yl)-2-oxooxazolidin-5-yl)methyl)-2,2-dimethylhydrazinecarboxamide]	200 (≈ 83.7 µg/mL)		1.14 (≈ 0.477 µg/mL)	2.3 (≈ 0.963 µg/mL)
NC[C@H]1CN(c2ccc(-c3cncc4[nH]ccc34)c(F)c2)C(=O)O1 [Example 35, (5S)-5-(aminomethyl)-3-[3-fluoro-4-(1H-pyrrolo[2,3-c]pyridin-4-yl)phenyl]-1,3-oxazolidin-2-one]	200 (≈ 65.3 µg/mL)		0.58 (≈ 0.189 µg/mL)	1.14 (≈ 0.372 µg/mL)
